Experimental data published in patent EP1542016A1, “PUMA, phosphorylated p53 and p38 map kinase as markers for HIV-1-induced apoptosis in circulating T cells of infected patient” (Institut Gustave Roussy, priority 2003, dated 2005).

Columns and labels:
p53 [1] = test: Phosphorylation of p53 (p53S46P, p53S15P) in Env-elicited syncytia; assay type: cell-based; conditions: 36 h coculture, SB203580, SB202190, SB202474 100 nM, LY294002 1 µM, PD98059 5 µM, anti-sense HIPK2 100 nM, Fig. 10
Experimental: Figures 10A and 10C. […] HeLa Env and HeLa CD4 cells were cocultured for 36h in the presence of the indicated agents followed by the determination of the frequency of p53S46P+ syncytia. Results are means of three independent experiments.
Figure 10B. […] Syncytia were generated as in figure 10A, after transfection with anti-sense HIPK2 phosphorothioate oligonucleotides (100 nM) or a scrambled control olignonucleotide (Co.), followed by immunofluorescence detection of p53S46P.
(§1) Transfection with pcDNA3.1 vector only, or p38 DN plasmids (gift by Roger Davis), or HPLC-purified anti-sense HIPK2 phosphorothioate oligonucleotides (100 nM) and control were transfected with Lipofectamine (Invitrogen) into HeLa CD4 cells, 24 h before co-culture with HeLa Env cells. Transfection with pcDNA3.1 vector only or a p53-responsive enhanced green fluorescent (GFP) plasmid (kind gift from Klas Wiman) was performed 24 hours before coculture of HeLa CD4 and HeLa Env cells. The frequency of GFP-expressing cells was assessed by cytofluorometry, on a FACS Vantage (Becton Dickinson) equipped with a 100 µm nozzle, allowing for the analysis of relatively large cells.

Env-elicited syncytia [2] = assay type: cell-based
Experimental: (§2) HeLa/U937 cell co-cultures were performed at different ratios (6). U937 or Jurkat cells were cultured with recombinant gp120 protein (500 ng/ml).

p53 [3] = assay type: cell-based; conditions: syncytia, 24 hours; SN50 20 µM, roscovitin 1 µM; Fig. 3B
Experimental: The frequency of GFP-expressing cells was assessed by cytofluorometry, on a FACS Vantage (Becton Dickinson) equipped with a 100 µm nozzle, allowing for the analysis of relatively large cells.
as §1

Env-elicited syncytia [4] = test: Karyogamy and cyclin B accumulation in Env-elicited syncytia; assay type: cell-based; conditions: SN50 20 µM, roscovitin 1 µM; Fig. 3D
Experimental: Figure 3D. […] Syncytia were treated with various drugs as in B, and the frequency of karyogamic cells was scored.
as §2

Env-induced syncytia = conditions: reference (5); cited from earlier work

For `CCc1nc(-c2ccc(OC)cc2)[nH]c1-c1ccncc1` [SB202474], the “frequency of p53S46P+ syncytia (p53S46P)” value (p53 [1]; 500 mM caffeine) was “not”.

For `Cn1c(=O)c2c(ncn2C)n(C)c1=O` [caffeine], the “propensity of syncytia to undergo apoptosis” value (Env-elicited syncytia [2]) was “did not reduce” and the “frequency of p53S46P+ syncytia (p53S46P)” value (p53 [1]; caffeine) was “no effect”.

In the case of `Oc1ccc(-c2nc(-c3ccc(F)cc3)c(-c3ccncc3)[nH]2)cc1` [SB202190], the “frequency of p53S46P+ syncytia (p53S46P)” value (p53 [1]; 500 mM caffeine) is reported as “strongly reduced”.

With `COc1cccc(-c2cc(=O)c3ccccc3o2)c1N` [PD98059] the “frequency of p53S46P+ syncytia (p53S46P)” value (p53 [1]; 500 mM caffeine) was “failed to affect”.

For `CC[C@H](CO)Nc1nc(NCc2ccccc2)c2ncn(C(C)C)c2n1` [roscovitine], the “p53-dependent transcription (p53-inducible GFP construct)” value (p53 [3]) is listed as “inhibited”, the “emergence of karyogamic syncytia (karyogamy)” value (Env-elicited syncytia [4]) is listed as “inhibiting” and the syncytium-dependent cell death (Env-induced syncytia) is listed as “blocked”.
